Measured values reported in patent US9895410B2, “Methods for preventing and treating oral cancers” (Cornell University, priority 2013, dated 2018).

Key:
p16 = assay: Immunohistochemistry of mouse tongue sections for p16; format: in vivo, mouse (C57BL/6); settings: peptide injections after 4-NQO treatment vs 4-NQO+saline; four mice per group
Procedure: (§1) Six-week old wild-type C57BL/6 female mice (purchased from the Jackson Laboratory) were used for this study. The mice were maintained on a normal chow (Lab-diet with constant nutrition, Lab-Diet Co, St. Louis, Mo.) and under controlled conditions with a 12 hour light/dark cycle. The mice were randomly divided into an experimental group in which mice received drinking water that contained 100 μg/ml 4-nitroquinoline 1-oxide (4-NQO) (Sigma, St. Louis, Mo.) and a control group in which mice received drinking water that contained propylene glycol (vehicle for 4-NQO). The treatment lasted for 10 weeks after which the mice received regular drinking water. […] Mouse body weights and precancerous and cancerous lesions were monitored in the oral cavities at different times for up to 15 weeks, or until signs of sickness or weight loss. […]
(§2) Immunohistochemistry. […] The sections were incubated with secondary antibodies (1:200, anti-mouse IgG from the M.O.M kit for p16; ready to use anti-rabbit IgG from the Invitrogen SuperPicture kit for Cox-2; and ready to use anti-mouse IgG from the Dako Envision™ HRP (DAB+) kit for mouse PCNA). […] Four to five representative areas of each mouse tongue section were photographed and analyzed.

PCNA = assay: Immunohistochemistry of mouse tongue sections for PCNA; format: in vivo, mouse (C57BL/6); settings: 4-NQO + peptide vs 4-NQO+saline; tongue regions with and without visible lesions; four mice per group
Procedure: as §1, §2

[1] = tested on: mouse tongue tumors induced by 4-NQO; assay: 4-NQO mouse model: histological diagnosis of squamous neoplasia on H&E stained tongue sections; format: in vivo, mouse (C57BL/6); settings: 4-NQO 10 weeks, then peptide 2.5 mg/kg/day s.c. 2 days/week for 15 weeks; four mice per group; 75% in 4-NQO+saline; p=0.07
Procedure: as §1
(§3) Tissue dissection, lesion grade measurement, and pathological diagnosis. […] Gross lesions were identified and photographed, and visible cancerous lesions on the tongues were counted. The multiplicity of lesions (number of lesions per mouse) was assessed with a 10× magnification. The severity of gross lesions on the tongues was quantified by a grading system that included 0 (no lesion), 1 (mild lesion), 2 (intermediate lesion), 3 (severe lesion), and 4 (most severe lesion) in a double blinded manner. […]

[2] = tested on: mouse tongue tumors induced by 4-NQO; assay: 4-NQO mouse model of oral carcinogenesis: gross tongue lesion multiplicity and severity grading; format: in vivo, mouse (C57BL/6)
Procedure: A mouse model of oral squamous cell carcinomas or oral cancers was developed by exposing the animals to the carcinogen 4-nitroquinoline 1-oxide (4-NQO) via drinking water.
Six-week old wild-type C57BL/6 female mice (purchased from the Jackson Laboratory) were used for this study. The mice were maintained on a normal chow (Lab-diet with constant nutrition, Lab-Diet Co, St. Louis, Mo.) and under controlled conditions with a 12 hour light/dark cycle. […] Mouse body weights and precancerous and cancerous lesions were monitored in the oral cavities at different times for up to 15 weeks, or until signs of sickness or weight loss. […]
as §3

PTGS2 = assay: Immunohistochemistry of mouse tongue sections for PTGS2 (Cox-2); format: in vivo, mouse (C57BL/6); settings: 4-NQO + peptide vs 4-NQO+saline; four mice per group
Procedure: as §1, §2

[3] = tested on: several mammalian cell types; settings: energy-independent manner; cited from earlier work

Substance: D-Arg-2′,6′-Dmt-Lys-Phe-NH2
- p16 protein levels in tongue epithelium (p16): greatly limited the 4-NQO-induced decrease in p16 protein levels
- PCNA positive cells in tongue epithelium (PCNA): obvious lower numbers of PCNA positive cells
- percentage of mice that developed severe dysplasia, carcinoma in situ, and invasive carcinoma [1]: 25%
- average number of cancerous tongue lesions per mouse (multiplicity) ([2]; 4-NQO 100 μg/ml in drinking water 10 weeks, then peptide 2.5 mg/kg/day s.c. on 2 days each week for 15 weeks, 10 mice/group, p<0.05 vs 4-NQO+saline (6.5±2.9)): 3.3±2.2
- percentage of less severe tongue lesions of grades 0-2 ([2]; 4-NQO 10 weeks, then peptide 2.5 mg/kg/day s.c. 2 days/week for 15 weeks, grading 0-4, p<0.05 vs 4-NQO+saline (Fisher's exact test)): 100%
- PTGS2 protein levels in tongues (PTGS2): greatly reduced levels in PTGS2 protein

Substance: 2′,6′-Dmt-D-Arg-Phe-Lys-NH2
- penetration of the plasma membrane [3]: readily penetrates the plasma membrane
